SMILES strings stand for the structures. Where “and” joins values, the source holds several entries; their conditions need not be identical. Identical values can stand only once. Toxic doses and inconclusive results are not listed. Numbered stars: 1 amine (or outer) side, 2 acyl side, 3 side chain; on linkers, the order of the positions; unused ones are H or OH. Bridge positions count the residues as written; N and C are the ends. Square brackets hold non-standard residues; d marks the D form. Peptide text beside a SMILES is read from it. I, II: the chains in the order shown. Actinocin(9to1) = Cc1c2oc3c(C)ccc(C(=O)[*:1])c3nc-2c(C(=O)[*:2])c(N)c1=O; aThr = C[C@H](O)[C@H](N)C(=O)O; NMeV = CN[C@H](C(=O)O)C(C)C; Sar = CNCC(=O)O

This experiment has as its system AKR/Lw mice, AKR lymphoma ip, median survival T/C. Description: NCI In Vivo Anticancer Drug Screen. Data for tumor model Lymphoma AKR (Transplanted) (intraperitoneal) in AKR/Lw mice. Conditions: endpoint: median survival time, higher = longer survival. The procedure:
The antitumor activity of compounds was measured in mice bearing transplantable tumors. Survival or tumor size were measured and the results are expressed as the measurement made in the treated group (T) divided by the measurement made in the vehicle treated control group (C). The tumor model used in this assay is Lymphoma AKR (Transplanted) (intraperitoneal) in AKR/Lw mice

For the molecule `Cc1c2oc3c(C)ccc(C(=O)N[C@@H]4C(=O)N[C@H](C(C)C)C(=O)N5CCC[C@H]5C(=O)N(C)CC(=O)N(C)[C@@H](C(C)C)C(=O)O[C@H]4C)c3nc-2c(C(=O)N[C@@H]2C(=O)N[C@H](C(C)C)C(=O)N3CCC[C@H]3C(=O)N(C)CC(=O)N(C)[C@@H](C(C)C)C(=O)O[C@H]2C)c(N)c1=O` (I: [aThr][dV]P[Sar][NMeV] / II: [aThr][dV]P[Sar][NMeV]; ester I:1-I:C, II:1-II:C; linker I:N-II:N via Actinocin(9to1)), the T/C is 110 % of control (dose: 0.05 mg/kg/injection, schedule: Q01DX001 (ip), vehicle: saline); 117 % of control (dose: 0.1 mg/kg/injection, schedule: Q01DX001 (ip), vehicle: saline); 112 % of control (dose: 0.2 mg/kg/injection, schedule: Q01DX001 (ip), vehicle: saline); 94 % of control (dose: 1.0 micrograms/kg/injection, schedule: Q01DX015 (ip), vehicle: saline); 108 % of control (dose: 2.0 micrograms/kg/injection, schedule: Q01DX015 (ip), vehicle: saline); 105 % of control (dose: 4.0 micrograms/kg/injection, schedule: Q01DX015 (ip), vehicle: saline). Besides, the T/C by setting is: (dose: 5.0 micrograms/kg/injection, schedule: Q01DX010 (ip), vehicle: saline) 109 % of control; (dose: 6.0 micrograms/kg/injection, schedule: Q01DX015 (ip), vehicle: saline) 105 % of control; (dose: 9.0 micrograms/kg/injection, schedule: Q01DX015 (ip), vehicle: saline) 111 % of control; (dose: 10.0 micrograms/kg/injection, schedule: Q01DX010 (ip), vehicle: saline) 119 % of control; (dose: 13.0 micrograms/kg/injection, schedule: Q01DX015 (ip), vehicle: saline) 94 % of control; (dose: 20.0 micrograms/kg/injection, schedule: Q01DX015 (ip), vehicle: saline) 119 % of control.
Consider `CN(C)CCCc1c2ccccc2nc2ccc(Cl)cc12`, for which the T/C is 100 % of control (dose: 6.0 mg/kg/injection, schedule: Q01DX001 (ip), vehicle: saline); 103 % of control (dose: 12.0 mg/kg/injection, schedule: Q01DX001 (ip), vehicle: saline); 109 % of control (dose: 25.0 mg/kg/injection, schedule: Q01DX001 (ip), vehicle: saline).
Turning to `COc1cccc2c1C(=O)c1c(O)c3c(c(O)c1C2=O)C[C@@](O)(C(C)=O)C[C@@H]3OC1CC(N)C(O)C(C)O1` (some centres not stated), the T/C reads like this: (dose: 0.02 mg/kg/injection, schedule: Q01DX015 (ip), vehicle: saline) 100 % of control; (dose: 0.05 mg/kg/injection, schedule: Q01DX010 (ip), vehicle: saline) 112 % of control; (dose: 0.05 mg/kg/injection, schedule: Q01DX015 (ip), vehicle: saline) 115 % of control; (dose: 0.1 mg/kg/injection, schedule: Q01DX010 (ip), vehicle: saline) 119 % of control; (dose: 0.1 mg/kg/injection, schedule: Q01DX015 (ip), vehicle: saline) 101 % of control and 110 % of control; (dose: 0.18 mg/kg/injection, schedule: Q01DX015 (ip), vehicle: saline) 106 % of control. For the same molecule, the T/C is 122 % of control (dose: 0.2 mg/kg/injection, schedule: Q01DX010 (ip), vehicle: saline); 106 % of control (dose: 0.2 mg/kg/injection, schedule: Q01DX015 (ip), vehicle: saline); 99 % of control (dose: 0.3 mg/kg/injection, schedule: Q01DX015 (ip), vehicle: saline); 121 % of control (dose: 0.37 mg/kg/injection, schedule: Q01DX015 (ip), vehicle: saline); 103 % of control and 113 % of control (dose: 0.4 mg/kg/injection, schedule: Q01DX015 (ip), vehicle: saline).
For the molecule `O=C1N[C@@H]([C@H]2CC[C@H](Cl)CN2)C(=O)N[C@H]1[C@H]1CC[C@H](Cl)CN1`, the T/C by setting is: (dose: 0.5 mg/kg/injection, schedule: Q01DX001 (ip), vehicle: water) 113 % of control; (dose: 1.0 mg/kg/injection, schedule: Q01DX001 (ip), vehicle: water) 111 % of control; (dose: 2.0 mg/kg/injection, schedule: Q01DX001 (ip), vehicle: saline) 102 % of control and 105 % of control; (dose: 2.0 mg/kg/injection, schedule: Q01DX001 (ip), vehicle: water) 114 % of control and 119 % of control; (dose: 2.0 mg/kg/injection, schedule: Q01DX009 (ip), vehicle: water) 178 % of control; (dose: 4.0 mg/kg/injection, schedule: Q01DX001 (ip), vehicle: saline) 102 % of control. Moreover, the T/C (dose: 4.0 mg/kg/injection, schedule: Q01DX001 (ip), vehicle: water) is 117 % of control; the T/C (dose: 8.0 mg/kg/injection, schedule: Q01DX001 (ip), vehicle: saline) is 122 % of control; the T/C (dose: 8.0 mg/kg/injection, schedule: Q01DX001 (ip), vehicle: water) is 171 % of control and 200 % of control; the T/C (dose: 16.0 mg/kg/injection, schedule: Q01DX001 (ip), vehicle: saline) was 108 % of control; the T/C (dose: 16.0 mg/kg/injection, schedule: Q01DX001 (ip), vehicle: water) is 207 % of control.
As to `NC(=S)N/N=C/c1ccc(O)cn1`, the T/C reads like this: (dose: 3.12 mg/kg/injection, schedule: Q01DX009 (ip), vehicle: Klucel (hydroxypropylcellulose) (HPC)) 116 % of control; (dose: 12.5 mg/kg/injection, schedule: Q01DX009 (ip), vehicle: Klucel (hydroxypropylcellulose) (HPC)) 214 % of control; (dose: 20.0 mg/kg/injection, schedule: Q06HX008 (ip), vehicle: Klucel (hydroxypropylcellulose) (HPC)) 115 % of control; (dose: 20.0 mg/kg/injection, schedule: Q06HX012 (ip), vehicle: Klucel (hydroxypropylcellulose) (HPC)) 115 % of control; (dose: 25.0 mg/kg/injection, schedule: Q01DX009 (ip), vehicle: Klucel (hydroxypropylcellulose) (HPC)) 119 % of control; (dose: 25.0 mg/kg/injection, schedule: Q04DX003 (ip), vehicle: Klucel (hydroxypropylcellulose) (HPC)) 116 % of control. Besides, the T/C is, setting by setting: (dose: 30.0 mg/kg/injection, schedule: Q06HX008 (ip), vehicle: Klucel (hydroxypropylcellulose) (HPC)) 107 % of control; (dose: 31.25 mg/kg/injection, schedule: Q06HX004 (ip), vehicle: saline) 116 % of control; (dose: 31.25 mg/kg/injection, schedule: Q06HX012 (ip), vehicle: saline) 96 % of control; (dose: 31.25 mg/kg/injection, schedule: Q06HX016 (ip), vehicle: saline) 113 % of control; (dose: 40.0 mg/kg/injection, schedule: Q06HX008 (ip), vehicle: Klucel (hydroxypropylcellulose) (HPC)) 103 % of control; (dose: 40.0 mg/kg/injection, schedule: Q06HX012 (ip), vehicle: Klucel (hydroxypropylcellulose) (HPC)) 123 % of control. Further, the T/C reads like this: (dose: 50.0 mg/kg/injection, schedule: Q01DX009 (ip), vehicle: Klucel (hydroxypropylcellulose) (HPC)) 110 % of control and 214 % of control; (dose: 50.0 mg/kg/injection, schedule: Q04DX003 (ip), vehicle: Klucel (hydroxypropylcellulose) (HPC)) 123 % of control; (dose: 50.0 mg/kg/injection, schedule: Q06HX008 (ip), vehicle: Klucel (hydroxypropylcellulose) (HPC)) 88 % of control; (dose: 50.0 mg/kg/injection, schedule: Q06HX012 (ip), vehicle: Klucel (hydroxypropylcellulose) (HPC)) 111 % of control; (dose: 60.0 mg/kg/injection, schedule: Q06HX008 (ip), vehicle: Klucel (hydroxypropylcellulose) (HPC)) 119 % of control; (dose: 60.0 mg/kg/injection, schedule: Q06HX012 (ip), vehicle: Klucel (hydroxypropylcellulose) (HPC)) 103 % of control. Further, the T/C is 90 % of control (dose: 62.5 mg/kg/injection, schedule: Q06HX004 (ip), vehicle: saline); 110 % of control (dose: 62.5 mg/kg/injection, schedule: Q06HX008 (ip), vehicle: saline); 113 % of control (dose: 62.5 mg/kg/injection, schedule: Q06HX012 (ip), vehicle: saline); 120 % of control (dose: 62.5 mg/kg/injection, schedule: Q06HX016 (ip), vehicle: saline); 173 % of control (dose: 75.0 mg/kg/injection, schedule: Q01DX009 (ip), vehicle: Klucel (hydroxypropylcellulose) (HPC)); 120 % of control (dose: 100.0 mg/kg/injection, schedule: Q04DX003 (ip), vehicle: Klucel (hydroxypropylcellulose) (HPC)). The T/C (dose: 125.0 mg/kg/injection, schedule: Q06HX008 (ip), vehicle: saline) is 96 % of control; the T/C (dose: 125.0 mg/kg/injection, schedule: Q06HX012 (ip), vehicle: saline) was 86 % of control; the T/C (dose: 200.0 mg/kg/injection, schedule: Q04DX003 (ip), vehicle: Klucel (hydroxypropylcellulose) (HPC)) was 123 % of control.
On to `O=C(/C=C/C(=O)Oc1ccc(Cl)cc1)Oc1ccc(Cl)cc1`, for which the T/C is 92 % of control (dose: 100.0 mg/kg/injection, schedule: Q01DX001 (ip), vehicle: Klucel (hydroxypropylcellulose) (HPC)); 89 % of control (dose: 200.0 mg/kg/injection, schedule: Q01DX001 (ip), vehicle: Klucel (hydroxypropylcellulose) (HPC)); 107 % of control (dose: 400.0 mg/kg/injection, schedule: Q01DX001 (ip), vehicle: Klucel (hydroxypropylcellulose) (HPC)).
